Results on 14 compounds are retold here after patent EP4729514A1, “BICYCLIC DERIVATIVE PARP INHIBITOR AND USE THEREOF” (Haisco Pharmaceutical Group Co., Ltd., priority 2023, dated 2024).

One data set deals with T1, PARP-1 (Homo sapiens, UniProt P09874).
T1 construct: purchased BPS 80501
Briefly: PARP1 enzyme activity assay (FP method, fluorescent probe). The format is biochemical. As for the experimental part: The inhibition of compounds on PARP1/2 enzyme activity was tested using the FP method. The substrate tracer fluorescent probe (from ICE BIOSCIENCE INC.) in the reaction was prepared in a reaction buffer (50 mM Tris (pH 8.0), 10 mM MgCl2, 150 mM NaCl, 0.001% Triox-100). PARP1/2 (BPS, Cat #80501/80502) was added to the reaction buffer, and gently mixed. The final concentrations of PARP1/2 and the fluorescent probe in the reaction mixture were 5/10 nM and 2.5 nM, respectively. Positive reference Olaparib was serially diluted 3-fold, from an initial concentration of 1 µM, to generate 10 concentration points. 0.1 µL of the compound in 100% DMSO was delivered to a 384-well plate (Corning, 4514) by the acoustic liquid conveyor (Echo 655), and the plate was centrifuged at 1000 rpm for 1 minute; 5 µL of PARP enzyme solution was transferred into the 384-well reaction plate, and the plate was centrifuged at 1000 rpm for 1 minute, and incubated at 25°C for 10 min; 5 µL of substrate solution was transferred into the 384-well reaction plate, and the plate was centrifuged at 1000 rpm for 1 minute, and incubated at 25°C for 60 minutes; finally, the mP signal value of FP (ex/em: 485 nm/520 nm) was read using the fluorescence polarisation module of the BMG PHERAstar FSX. Subsequently, the IC50 value was determined by fitting the data to a four-parameter nonlinear regression curve using GraphPad Prism 8 software. The inhibition rate was calculated according to formula 1, where RLUsample represents the readout of the compound well, RLUmax represents the readout of the solvent control well, and RLUmin represents the readout of the control well without the PARP1/2 enzyme. The IC50 value was determined by fitting the data to a four-parameter curve (log(inhibitor) vs. response -- Variable slope) using GraphPad Prism software. Inhibition% = (1−(RLUsample−RLUmin)/(RLUmax−RLUmin)) × 100% [formula] Table 1 PARP-1 enzyme activity

The subject of a further data set is DLD-1. Briefly: DLD-1 cell activity assay (CellTiter-Glo, 7 days). It counts as cell-based. Conditions: Homo sapiens, 168 h, 7 days incubation; for inhibition at 10 µM: read-out: Max inh.% 10 µM; for IC50: table does not say whether DLD-1 or DLD-1 BRCA2 KO. The protocol: DLD-1 (150 cells/well/100 µL) (ATCC, CCL-221) and DLD-1 BRCA2 KO (1500 cells/well/100 µL) (from ICE BIOSCIENCE INC.) were inoculated into a 96-well plate (Greiner, 655090) at appropriate cell densities and incubated overnight in a cell incubator at 37°C. The test compound was diluted in the corresponding cell culture medium, and the mixture was added to the well plate and incubated for 7 days. On the fourth day, the medium was replaced with a fresh medium containing the same concentrations of the compounds. The CellTiter-Glo reagent (CTG, Vazyme, DD1101-03) and the culture plate were taken out and returned to room temperature, and then 60 µL of CTG reagent was added to the cells. The plate was then shaken for 2 minutes to ensure complete cell lysis and placed at room temperature for 30 minutes. Luminescence signal values were read using a microplate reader (PHERAstar FSX). The wells containing only culture medium were used as negative controls, and the DMSO-containing wells were used as positive controls. The inhibitory activity percentage of the compounds was normalised using the readings from the negative and positive controls. Calculation formula of inhibition rate: [formula] Table 2 DLD-1 cell activity
For orientation: Cellular ATP, detected with luciferase, serves as a proxy for viable cell number.

The test system of the next data set is A549 PARP2 KO. Kind of data set: PARP selectivity experiment (pADPr immunofluorescence after H2O2 stimulation), A549 PARP2 KO cells. The format is cell-based. The protocol: (§1) A549WT, A549 PARP1 KO and A549 PARP2 KO cell lines were inoculated into a 384-well plate at 2500/40 µL/well, and incubated overnight at 37°C with 5% CO2. On the next day, 40 nL of serially diluted compounds were added, and the cells were incubated at 37°C with 5% CO2 for 1 hour. The cells were stimulated by adding 5 µL of H2O2. A549 WT and A549 PARP2 KO were stimulated with a final concentration of 200 µM for 5 minutes, and A549 PARP1 KO was stimulated with a final concentration of 20 mM for 45 minutes. After the stimulation, the supernatant was discarded, and the cells were fixed with 40 µL of pre-cooled methanol in a refrigerator at 4°C for 20 minutes. The cells were washed twice with PBS, and blocked with 20 µL of blocking buffer for 1 hour. A primary antibody mixture (prepared by diluting the pADPr antibody (10H: sc-56198) 1 : 500 in blocking buffer) was added, and the plate was incubated overnight at 4°C. The cells were washed three times with PBST. A secondary antibody mixture (prepared by diluting the goat anti-mouse IgG (H+L) highly cross-adsorbed secondary antibody (Alexa Fluor™ 488) 1 : 500 in blocking buffer) was added, and the plate was incubated at room temperature for 1 hour. The cells were washed three times with PBST, and 20 µL of DAPI solution (1 : 5000 dilution) was added. The plate was incubated at room temperature for 10 minutes before scanning. […]

Data set [1] can be described thus: Pharmacokinetic test in rats. It counts as in vivo, SD rats. Conditions: for Kp at 24 h: brain, 24 h after administration, cell spans the i.v. and i.g. lines, read-out: Brain/Plasma Ratio (24 h); for Kp at 24 h / bioavailability: rat; for pharmacokinetic characteristics in rats: conclusion in words; for AUC(0-t) at 24 h / clearance / Vd: rat plasma; for Vd: read-out: Vdss; for bioavailability: plasma. The protocol:
4.1. Experimental animals: Male SD rats (about 220 g, 6-8 weeks old, 6 rats/compound) purchased from CHENGDU DOSSY EXPERIMENTAL ANIMALS CO., LTD.
4.2 Experimental design: on the day of the experiment, 12 SD rats were randomly grouped according to their body weights. The animals were fasted with water available for 12-14 h one day before the administration, and were fed 4 h after the administration. Table 4. Administration information
Before and after administration, 0.15 ml of blood was taken from the orbit under isoflurane anaesthesia and placed in an EDTAK2 centrifuge tube. The tube was centrifuged at 5000 rpm at 4°C for 10 min, and plasma was collected. The blood collection time points for the intravenous administration group and intragastric administration group were: 0, 5 min, 15 min, 30 min, 1 h, 2 h, 4 h, 6 h, 8 h and 24 h. The brain tissues were collected 24 hours after the administration, rinsed with cold physiological saline to remove the residual blood on the surface, drained out and then homogenised. Before analysis and detection, all samples were stored at -80°C. The samples were quantitatively analysed by LC-MS/MS. Table 5. Pharmacokinetic parameters of test compounds in plasma of rats

For a further data set, the system named is A549 PARP1 KO. Briefly: PARP selectivity experiment (pADPr immunofluorescence after H2O2 stimulation), A549 PARP1 KO cells. The format is cell-based. The conditions noted are these: Homo sapiens, 0.75 h, H2O2 20 mM for 45 minutes. As for the experimental part:
as §1

Setting [2] is: PARP-1 enzyme activity, FP method, read-out: IC50.

Like-named read-outs stand apart in the source and are kept apart here.

T1 sequence (P09874 whole entry): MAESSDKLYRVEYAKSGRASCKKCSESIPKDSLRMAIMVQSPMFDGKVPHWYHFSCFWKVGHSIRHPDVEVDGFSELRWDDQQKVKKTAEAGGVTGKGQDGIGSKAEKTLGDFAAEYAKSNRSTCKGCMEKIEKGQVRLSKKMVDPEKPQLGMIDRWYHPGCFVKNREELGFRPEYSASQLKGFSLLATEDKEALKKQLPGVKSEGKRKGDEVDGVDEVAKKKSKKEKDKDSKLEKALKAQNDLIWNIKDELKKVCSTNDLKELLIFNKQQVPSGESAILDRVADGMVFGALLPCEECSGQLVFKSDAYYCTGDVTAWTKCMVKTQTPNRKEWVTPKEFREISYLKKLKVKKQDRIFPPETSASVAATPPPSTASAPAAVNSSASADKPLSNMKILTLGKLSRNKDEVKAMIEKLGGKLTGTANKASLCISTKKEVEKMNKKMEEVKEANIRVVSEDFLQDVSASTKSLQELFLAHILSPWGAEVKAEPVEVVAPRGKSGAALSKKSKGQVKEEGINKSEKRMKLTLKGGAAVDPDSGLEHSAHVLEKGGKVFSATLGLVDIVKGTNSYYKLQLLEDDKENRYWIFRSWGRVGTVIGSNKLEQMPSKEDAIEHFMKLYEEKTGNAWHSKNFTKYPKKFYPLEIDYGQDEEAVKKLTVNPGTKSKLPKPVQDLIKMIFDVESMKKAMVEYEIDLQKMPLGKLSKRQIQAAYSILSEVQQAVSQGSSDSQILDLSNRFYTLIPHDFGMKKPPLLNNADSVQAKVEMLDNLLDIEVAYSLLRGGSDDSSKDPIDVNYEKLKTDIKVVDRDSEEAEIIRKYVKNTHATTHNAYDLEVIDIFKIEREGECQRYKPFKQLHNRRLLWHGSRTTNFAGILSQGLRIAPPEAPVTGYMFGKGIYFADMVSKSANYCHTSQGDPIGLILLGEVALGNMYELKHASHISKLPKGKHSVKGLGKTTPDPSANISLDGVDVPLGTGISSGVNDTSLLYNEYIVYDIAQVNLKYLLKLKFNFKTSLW

The compound `CCc1nc2ccc(CN3CCN(c4ccc(C(=O)Nc5cn(C)nc5F)nc4F)CC3)c(F)c2[nH]c1=O` [Compound 1] registered an IC50 against PARP-1 of 2.74 nM. Besides, in the data set with DLD-1, the inhibition at 10 µM amounted to 94% and the IC50 worked out at 3.64 nM.

For `Cn1cc(NC(=O)c2ccc(N3CCN(Cc4ccc5nc(C(F)F)c(=O)[nH]c5c4F)CC3)c(F)n2)c(F)n1` [Compound 2], the 50% inhibitory concentration (IC50) on PARP-1 is 10.8 nM; in the data set on A549 PARP2 KO (Homo sapiens, 5 min, A549 PARP2 KO cells, H2O2 200 µM for 5 minutes) it was 0.63 nM; in the data set with A549 PARP1 KO, more than 5000 nM; in the data set on DLD-1, 4.67 nM. For the same compound, in the data set on A549 PARP2 KO (conclusion in words, from A549 PARP2 KO versus A549 PARP1 KO), the “selectivity for PARP1” value was “good selectivity for PARP1”. Further, the Kp at 24 h in data set [1] (iv) was determined as 1.03. Further, the “pharmacokinetic characteristics in rats” value in data set [1] is “good pharmacokinetic characteristics”. The AUC(0-t) at 24 h in data set [1] (iv, i.v. (2.5 mg/kg)) was 18700 ± 972 ng·h/mL; in data set [1] (po, i.g. (10 mg/kg)) it was 50000 ± 11500 ng·h/mL. In data set [1] (iv, i.v. (2.5 mg/kg)), the clearance stood at 2.22 ± 0.11 mL/min/kg. Also, in data set [1] (iv, i.v. (2.5 mg/kg)), the Vd amounted to 0.348 ± 0.027 L/kg. In data set [1] (po, i.g. (10 mg/kg)), this compound showed a bioavailability of 66.8 ± 15%. Moreover, in the data set with DLD-1, the inhibition at 10 µM is 93.1%.

`Cn1ncc(NC(=O)c2ccc(N3CCN(Cc4ccc5nc(C(F)F)c(=O)[nH]c5c4F)CC3)c(F)n2)c1F` [Compound 3] came in with an IC50 at PARP-1 of 10.5 nM. Moreover, in the data set on DLD-1, the inhibition at 10 µM was determined as 91.6% and the IC50 turned out to be 4.67 nM.

On PARP-1, `CCc1nc2ccc(CN3CCN(c4ccc(C(=O)Nc5cnn(C)c5F)nc4F)CC3)c(F)c2[nH]c1=O` [Compound 4] returned an IC50 of 3.38 nM. Moreover, in the data set on DLD-1, the inhibition at 10 µM is 91.7% and 3.1 nM corresponded to half-maximal inhibition (IC50).

Take `Cn1ncc(C(=O)Nc2ccc(N3CCN(Cc4ccc5nc(C(F)F)c(=O)[nH]c5c4F)CC3)c(F)n2)c1F` [Compound 5]: on PARP-1 (setting [2]), the half-inhibitory concentration (IC50) is 17.1 nM.

In the case of `CCc1nc2ccc(CN3CCN(c4ccc(NC(=O)c5cn(C)nc5F)nc4F)CC3)c(F)c2[nH]c1=O` [Compound 6], on PARP-1 (setting [2]), the IC50 is 10.5 nM.

Regarding `C=C1CC(NC(=O)c2ccc(N3CCN(Cc4ccc5nc(C(F)F)c(=O)[nH]c5c4F)CC3)c(F)n2)C1` [Compound 7], the IC50 at PARP-1 (setting [2]) amounted to 12.5 nM.

On to `C=C1CC(NC(=O)c2ccc(O[C@H]3CN(Cc4ccc5nc(CC)c(=O)[nH]c5c4F)[C@@H]3C)c(F)n2)C1` [Compound 8], for which, on PARP-1, it took 5.42 nM to reach half-maximal inhibition (IC50). Further, the Kp at 24 h in data set [1] (iv) was found to be 0.242. Also, the “pharmacokinetic characteristics in rats” value in data set [1] is on record as “good pharmacokinetic characteristics”. In data set [1] (iv, i.v. (2.5 mg/kg)), the AUC(0-t) at 24 h was determined as 5720 ± 298 ng·h/mL, the clearance was determined as 4.36 ± 0.74 mL/min/kg and the Vd was found to be 0.855 ± 0.16 L/kg. In data set [1] (po, i.g. (10 mg/kg)), the bioavailability is 81.9 ± 22% and the AUC(0-t) at 24 h came to 31800 ± 8480 ng·h/mL. In the data set on DLD-1, the inhibition at 10 µM came to 86.7% and inhibition was half-maximal at 16.8 nM (IC50).

For the compound `C=C1CC(NC(=O)c2ccc(N3CCN(Cc4ccc5nc(C)c(=O)[nH]c5c4F)CC3)c(F)n2)C1` [Compound 9], half-maximal inhibition against PARP-1 (IC50) was put at 3.25 nM. Moreover, in the data set with DLD-1, the inhibition at 10 µM came out at 81.8% and half-maximal inhibition (IC50) required 7.99 nM.

Regarding `C=C1CC(NC(=O)c2ccc(N3CCN(Cc4ccc5nc(CC)c(=O)[nH]c5c4F)CC3)c(F)n2)C1` [Compound 10], on PARP-1, the IC50 was found to be 4.55 nM. For the same compound, in the data set with DLD-1, the inhibition at 10 µM turned out to be 87.6% and the IC50 came to 6.96 nM.

As for `CCc1nc2ccc(CN3C[C@H](Oc4ccc(C(=O)NC5CC(=C(F)F)C5)nc4F)[C@H]3C)c(F)c2[nH]c1=O` (stereo partly drawn) [Compound 11], the IC50 on PARP-1 (setting [2]) worked out at 5.63 nM.

For `Cc1nc2ccc(CN3CCN(c4ccc(C(=O)NC5CC(=C(F)F)C5)nc4F)CC3)c(F)c2[nH]c1=O` (stereo not drawn) [Compound 12], on PARP-1 (setting [2]), the concentration for half-maximal inhibition (IC50) stood at 3.14 nM.

Consider `CCc1nc2ccc(CN3CCN(c4ccc(C(=O)NC5CC(=C(F)F)C5)nc4F)CC3)c(F)c2[nH]c1=O` (stereo not drawn) [Compound 13], for which the IC50 at PARP-1 (setting [2]) amounted to 6.39 nM.

As to `C=C1CC(NC(=O)c2ccc(O[C@H]3CN(Cc4ccc5nc(C)c(=O)[nH]c5c4F)[C@@H]3C)c(F)n2)C1` [Compound 18], at PARP-1 (setting [2]), the IC50 is 7.94 nM.

Usually IC50 stands for the concentration that inhibits the measured activity by half. By AUC(0-t) is commonly meant exposure summed from dosing to a finite time, without extrapolation to infinity. The clearance is the rate of elimination divided by the concentration. A higher clearance goes with a high capacity for elimination. In general, bioavailability refers to dose-corrected exposure relative to a reference, in per cent. Read a low bioavailability as poor availability.
